# Assays:
# Assay type in all cases: in vivo
# [1] = tested on: ICR mice; assay: Hole-board test; settings: 300 s
# Experimental: (§1) ICR mice of male sex, weighing 15.6-17.8 g were used, provided by Experimental Animal Centre of HKUST, housed in groups, given food and water ad libitum and maintained on a 12 hour light: 12 hour dark cycle. All of the experimental groups had 12 animals per group.
# (§2) For each experimental animal, administered orally 0.2 ml (pH 7.2) of respective solvent at concentrations as stated above for each group (or double-distilled water for normal control group) one hour before testing.
# The hole-board apparatus is a 0.5 cm thick walled wood arena of 60×60×30 cm, with four 5 cm equidistant 4 cm diameter holes spaced on the floor. The mice are placed on the centre of the arena and the number of head-dip on the hole and the number of rearing are counted during a 300 second test period (File S. E. et al., “The effects of triazolobenzo-diazepines in two animal tests of anxiety and in the holeboard.”, Br J Pharmacol. 1985 November; 86(3): 729-35; PMID: 2866006). After each trial, the floor of the apparatus was wiped and dried thoroughly with tissue to remove traces of the previous path.
# [2] = tested on: ICR mice; assay: Horizontal-wire test; settings: for No. of falling: Table 1, mice; for No. of falling / Number of falling: 60 s; for Number of falling: Table 2, mice
# Experimental: as §1, §2
# Mice are lifted by the tail and allowed to grasp a horizontally strung wire (1 mm diameter, 20 cm long and placed 20 cm above the table) with their forepaws and released (Bonetti E. P. et al., Psychopharmacology (Berl). 1982; 78(1): 8-18; PMID: 6292984). For each experimental animal, the number of falling onto the table in 60 seconds was determined.
# There is no significant difference between same dosage l-THP and dl-THP groups.
# [3] = tested on: ICR mice; assay: Elevated plus-maze test; settings: for Closed arm entry % / Closed arm entry No. / Open arm entry % / Open arm entry No. / Total no. of arm entries: 300 s; for Closed arm Time spent / Closed arm time spent % / Open arm Time spent / Open arm time spent %: 300 s test
# Experimental: as §1, §2
# The elevated plus-maze is made of 0.5 cm thick wood as a horizontal cross consisting of two open arms (25×5 cm) and two opposite arms (25×5 cm) enclosed by 10 cm high walls. The arms extend from a central platform having dimensions of 5×5 cm. The plus-maze is elevated to a height of 40 cm from the floor. The maze is put inside a box with dimensions of 30×30×50 cm. The mice are placed on the central platform of the maze facing a closed arm. The number of arm entries and the time spent in the open and closed arm are counted for 300 seconds (Pellow S. et al., “Anxiolytic and anxiogenic drug effects on exploratory activity in an elevated plus-maze: a novel test of anxiety in the rat”, Pharmacol Biochem Behav. 1986 March; 24(3): 525-9; PMID: 2871560). Arm entry was defined as one half body entered into the arm.
# [4] = tested on: ICR mice; assay: Locomotor activity test; settings: for No. of Transitions: mice, 1 h before test, 300 s
# Experimental: as §1, §2
# An apparatus with a brown light-resistant box having dimensions of 60×60×30 cm was used to perform the test. It consists of four cylindrical plastic boxes of 20 cm diameter, each having 6 equally distributed infrared photocells. The locomotor activity was counted automatically during a 300 second test period. A decrease in the number of transitions reflects a decrease in locomotor activity.
# Physical reflections existed for this group and there was no abnormal phenomenon in respiratory circulation.
# [5] = mice, oral 0.5 mg/kg, 0.5 mg/kg
structure (smiles),measurement,setting,value
"COc1cc2c(cc1OC)[C@@H]1Cc3ccc(OC)c(OC)c3CN1CC2 [l-THP, l-tetrahydropalmatine]",Head-dip No.,[1]; oral 0.05 mg/kg,15.83 ± 3.01
same,Rearing No.,[1]; oral 0.05 mg/kg,26.83 ± 5.51
same,Total No. (head-dip and rearing),[1]; oral 0.05 mg/kg,42.67 ± 6.64
same,Head-dip No.,[1]; oral 0.1 mg/kg,18.73 ± 6.56
same,Rearing No.,[1]; oral 0.1 mg/kg,20.36 ± 9.54
same,Rearing No.,[1]; oral 0.5 mg/kg,27.08 ± 13.64
same,Total No. (head-dip and rearing),[1]; oral 0.5 mg/kg,41.00 ± 10.20
same,Rearing No.,[1]; oral 1.0 mg/kg,23.50 ± 9.27
same,Head-dip No.,[1]; oral 2.5 mg/kg,15.67 ± 4.00
same,Rearing No.,[1]; oral 2.5 mg/kg,22.42 ± 4.06
same,Total No. (head-dip and rearing),[1]; oral 2.5 mg/kg,38.08 ± 6.43
same,Head-dip No.,[1]; oral 5.0 mg/kg,8.75 ± 5.56
same,No. of falling,[2]; oral 0.5 mg/kg,0.4 ± 0.49
same,No. of falling,[2]; oral 1.0 mg/kg,0.4 ± 0.48
same,No. of falling,[2]; oral 5.0 mg/kg,0.5 ± 0.67
same,No. of falling,[2]; oral 10 mg/kg,1.0 ± 0.77
same,No. of falling,[2]; oral 20 mg/kg,4.5 ± 1.50
same,No. of falling,[2]; oral 40 mg/kg,8.5 ± 3.55
same,Number of falling,[2]; oral 0.5 mg/kg,0.40 ± 0.48
same,Number of falling,[2]; oral 1.0 mg/kg,0.40 ± 0.48
same,Number of falling,[2]; oral 5.0 mg/kg,0.50 ± 0.67
same,Number of falling,[2]; oral 10 mg/kg,1.00 ± 0.77
same,Number of falling,[2]; oral 30 mg/kg,18.50 ± 3.54
same,oral dosage at which there is no myorelaxation effect,"[2]; mice, oral",less than 20 mg/kg
same,Optimal dosage for anxiolytic effect,[3]; experimental mice,1 mg/kg
same,medicinal effect under medium dosage,"[3]; experimental mice, 5 mg/kg",sedative and hypnotic effect
same,medicinal effect under low dosage,"[3]; experimental mice, 0.1-2.5 mg/kg",anxiolytic effect
same,most medicinal dosage (time spent and percentage of open arm entry),"[3]; mice, oral",1 mg/kg
same,Closed arm entry %,"[3]; mice, oral 0.05 mg/kg",67.89 ± 6.77%
same,Closed arm entry No.,"[3]; mice, oral 0.05 mg/kg",19.33 ± 5.55
same,Open arm entry %,"[3]; mice, oral 0.05 mg/kg",32.11 ± 6.77%
same,Open arm entry No.,"[3]; mice, oral 0.05 mg/kg",8.75 ± 1.36
same,Total no. of arm entries,"[3]; mice, oral 0.05 mg/kg",28.08 ± 5.62
same,Closed arm Time spent,"[3]; mice, oral 0.05 mg/kg",225.42 ± 12.13
same,Closed arm time spent %,"[3]; mice, oral 0.05 mg/kg",80.96 ± 3.55%
same,Open arm Time spent,"[3]; mice, oral 0.05 mg/kg",53.08 ± 10.40
same,Open arm time spent %,"[3]; mice, oral 0.05 mg/kg",19.04 ± 3.55%
same,number of open arm entry of l-THP greater than dl-THP by,"[3]; mice, oral 0.1 mg/kg",31.7%
same,percentage of open arm entry of l-THP greater than dl-THP by,"[3]; mice, oral 0.1 mg/kg",40.4%
same,Closed arm entry %,"[3]; mice, oral 0.1 mg/kg",57.17 ± 4.26%
same,Closed arm entry No.,"[3]; mice, oral 0.1 mg/kg",15.27 ± 2.41
same,Open arm entry %,"[3]; mice, oral 0.1 mg/kg",42.83 ± 4.26 %
same,Total no. of arm entries,"[3]; mice, oral 0.1 mg/kg",26.82 ± 4.38
same,Closed arm Time spent,"[3]; mice, oral 0.1 mg/kg",217.27 ± 15.11
same,Closed arm time spent %,"[3]; mice, oral 0.1 mg/kg",76.33 ± 5.61%
same,Open arm Time spent,"[3]; mice, oral 0.1 mg/kg",68.18 ± 20.68
same,Open arm time spent %,"[3]; mice, oral 0.1 mg/kg",23.67 ± 5.61%
same,Closed arm entry %,"[3]; mice, oral 0.5 mg/kg",58.18 ± 6.37%
same,Closed arm entry No.,"[3]; mice, oral 0.5 mg/kg",16.17 ± 1.95
same,Total no. of arm entries,"[3]; mice, oral 0.5 mg/kg",27.92 ± 4.08
same,Closed arm Time spent,"[3]; mice, oral 0.5 mg/kg",205.33 ± 20.02
same,Closed arm time spent %,"[3]; mice, oral 0.5 mg/kg",74.19 ± 7.09%
same,Open arm Time spent,"[3]; mice, oral 0.5 mg/kg",71.75 ± 21.08
same,Open arm time spent %,[3]; [5],25.81 ± 7.09 %
same,Open arm entry %,[3]; [5],41.82 ± 6.37 %
same,Closed arm entry %,"[3]; mice, oral 1.0 mg/kg",55.53 ± 3.10%
same,Closed arm entry No.,"[3]; mice, oral 1.0 mg/kg",14.92 ± 1.93
same,Open arm entry %,"[3]; mice, oral 1.0 mg/kg",44.47 ± 3.10 %
same,Total no. of arm entries,"[3]; mice, oral 1.0 mg/kg",26.92 ± 3.61
same,Closed arm Time spent,"[3]; mice, oral 1.0 mg/kg",204.00 ± 16.42
same,Closed arm time spent %,"[3]; mice, oral 1.0 mg/kg",71.94 ± 6.70%
same,Open arm time spent %,"[3]; mice, oral 1.0 mg/kg, 1 mg/kg",28.06 ± 6.70 %
same,Closed arm entry %,"[3]; mice, oral 2.5 mg/kg",59.61 ± 4.06%
same,Closed arm entry No.,"[3]; mice, oral 2.5 mg/kg",15.92 ± 2.15
same,Open arm entry %,"[3]; mice, oral 2.5 mg/kg",40.39 ± 4.09 %
same,Open arm entry No.,"[3]; mice, oral 2.5 mg/kg",10.92 ± 2.50
same,Total no. of arm entries,"[3]; mice, oral 2.5 mg/kg",26.83 ± 4.20
same,Closed arm Time spent,"[3]; mice, oral 2.5 mg/kg",227.83 ± 12.15
same,Closed arm time spent %,"[3]; mice, oral 2.5 mg/kg",78.04 ± 4.70%
same,Open arm Time spent,"[3]; mice, oral 2.5 mg/kg",64.75 ± 16.70
same,Open arm time spent %,"[3]; mice, oral 2.5 mg/kg",21.96 ± 4.70%
same,number of open arm entry of l-THP less than dl-THP by,"[3]; mice, oral 5 mg/kg",357.4%
same,percentage of open arm entry of l-THP less than dl-THP by,"[3]; mice, oral 5 mg/kg",69.5%
same,Closed arm entry %,"[3]; mice, oral 5.0 mg/kg",70.37 ± 5.03%
same,Closed arm entry No.,"[3]; mice, oral 5.0 mg/kg",7.83 ± 3.43
same,Closed arm Time spent,"[3]; mice, oral 5.0 mg/kg",253.25 ± 24.32
same,Closed arm time spent %,"[3]; mice, oral 5.0 mg/kg",88.54 ± 5.48%
same,Open arm time spent %,"[3]; mice, oral 5.0 mg/kg, 5 mg/kg",11.46 ± 5.48 %
same,Open arm entry %,"[3]; mice, oral 5.0 mg/kg, 5 mg/kg",29.63 ± 5.03%
same,increase of percentage of open arm entry compared to the normal control group,"[3]; mice, oral 0.1-2.5 mg/kg",39.31-48.14%
same,increase of percentage of time spent in open arm compared to the normal control group,"[3]; mice, oral 0.1-2.5 mg/kg",27.19-50.78%
same,medicinal effect under high dosage,[4]; 20 mg/kg,inhibitive effect on CNS and myorelaxation
same,No. of Transitions,[4]; oral 0.5 mg/kg,121.1 ± 9.53
same,No. of Transitions,[4]; oral 1.0 mg/kg,111.3 ± 11.91
same,No. of Transitions,[4]; oral 5.0 mg/kg,104.5 ± 10.73
same,No. of Transitions,[4]; oral 10 mg/kg,101.4 ± 15.41
same,No. of Transitions,[4]; oral 20 mg/kg,53.0 ± 12.72
same,No. of Transitions,[4]; oral 40 mg/kg,13.6 ± 5.27

# Reference: patent publication US20040198770A1, “Uses for l-tetrahydropalmatine” (PharmacoGenetics Limited, priority 2003, published 2004)
